The text below walks through data of US5916876A, “Peptide inhibitors of leukocyte adhesion” (Centocor, Inc., priority 1994, dated 1999).

Residues, ends and D or L forms follow the SMILES beside them.

The experiment has as its target T1, human P-selectin (Homo sapiens, UniProt P16109).
T1 construct: from tissue; host or cells: outdated human platelet packs from a blood bank
T1 sequence (P16109 42-830): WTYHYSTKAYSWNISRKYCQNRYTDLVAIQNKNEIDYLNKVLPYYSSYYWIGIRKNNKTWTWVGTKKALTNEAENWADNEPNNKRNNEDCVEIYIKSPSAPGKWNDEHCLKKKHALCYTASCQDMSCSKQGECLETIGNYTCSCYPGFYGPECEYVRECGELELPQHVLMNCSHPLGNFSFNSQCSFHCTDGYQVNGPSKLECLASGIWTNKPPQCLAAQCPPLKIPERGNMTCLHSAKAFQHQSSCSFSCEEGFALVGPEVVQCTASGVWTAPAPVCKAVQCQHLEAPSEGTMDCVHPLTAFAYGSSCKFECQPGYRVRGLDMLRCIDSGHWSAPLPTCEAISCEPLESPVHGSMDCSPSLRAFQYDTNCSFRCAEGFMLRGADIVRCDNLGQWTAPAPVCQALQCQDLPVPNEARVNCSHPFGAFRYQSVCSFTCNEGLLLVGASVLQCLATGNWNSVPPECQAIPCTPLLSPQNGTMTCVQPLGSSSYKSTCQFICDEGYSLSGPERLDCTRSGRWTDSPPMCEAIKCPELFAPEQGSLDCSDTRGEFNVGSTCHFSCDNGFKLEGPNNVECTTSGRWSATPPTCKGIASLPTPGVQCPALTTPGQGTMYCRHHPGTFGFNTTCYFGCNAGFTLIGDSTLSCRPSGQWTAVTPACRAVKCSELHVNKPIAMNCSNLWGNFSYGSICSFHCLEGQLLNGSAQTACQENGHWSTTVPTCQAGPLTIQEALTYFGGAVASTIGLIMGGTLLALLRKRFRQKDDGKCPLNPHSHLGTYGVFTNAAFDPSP
Briefly: Neutrophil adhesion to purified P-selectin immobilized on plastic wells (myeloperoxidase readout). The format is cell-based. To be noted: inhibition of binding of human neutrophils to human P-selectin; head: 0.3 μM peptide, text b193: 300 μM; read-out: % INHIBITION AT 0.3 μM PEPTIDE CONC. An excerpt:
Peptides can be screened for their ability to inhibit adhesion to cells, for example, neutrophil adhesion to purified P-selectin immobilized on plastic wells, using the assay described by Geng, et al., Nature 343, 757-760 (1990).
Human neutrophils are isolated from heparinized whole blood by density gradient centrifugation on Mono-Poly resolving media, Flow Laboratories. Neutrophil suspensions are greater than 98% pure and greater than 95% viable by trypan blue exclusion. For adhesion assays, neutrophils are suspended at a concentration of 2×10^6 cells/mL in Hanks' balanced salt solution containing 1.26 mM Ca^2+ and 0.81 mM Mg^2+ (HBSS, Gibco) with […] human serum albumin (HBSS/HSA). Adhesion assays are conducted in triplicate in 96-well microtiter plates, Corning, incubated at 4° C. overnight with 50 microliters of various protein solutions.
P-selectin is isolated from human platelet lysates by immunoaffinity chromatography on antibody S12-Sepharose™ and ion-exchange chromatography on a Mono-Q™ column (FLPC, Pharmacia Fine Chemicals), as follows.
Outdated human platelet packs (100 units) obtained from a blood bank and stored at 4° C. are pooled, adjusted to 5 mM EDTA at pH 7.5, centrifuged at 4,000 rpm for 30 minutes in 1 liter bottles, then washed three times with 1 liter of 0.1 M NaCl, 20 mM Tris pH 7.5 (TBS), 5 mM EDTA, 5 mM benzamidine.
The pellets are then resuspended in a minimum amount of wash buffer and made 1 mM in DIFP, then frozen in 50 mL screwtop tubes at -80° C. The frozen platelets are thawed and resuspended in 50 mL TBS, 5 mM benzamidine, 5 mM EDTA pH 7.5, 100 µM leupeptin. The suspension is frozen and thawed two times in a dry ice-acetone bath using a 600 mL lyophilizing flask, then homogenized in a glass/teflon mortar and pestle and made 1 mM in DIFP. The NaCl concentration is adjusted to 0.5 M with a stock solution of 4 M NaCl. After stirring the suspension at 4° C., it is centrifuged in polycarbonate tubes at 33,000 rpm for 60 minutes at 4° C. The supernatant (0.5 M NaCl wash) is removed and saved; this supernatant contains the soluble form of P-selectin. Care is taken not to remove the top part of the pellet with the supernatant. The pellets are then homogenized in extraction buffer (TBS, 5 mM benzamidine, 5 mM EDTA, pH 7.5, 100 μM leupeptin, 2% Triton X-100). After centrifugation at 19,500 rpm for 25 minutes at 4° C., the supernatant is removed. The extraction procedure is repeated with the pellet and the supernatant is combined with the first supernatant. The combined extracts, which contain the membrane form of P-selectin, are adjusted to 0.5 M NaCl.
The soluble fraction (0.5 M NaCl wash) and the membrane extract (also adjusted to 0.5 M NaCl) are absorbed with separate pools of the monoclonal antibody S12 (directed to P-selectin) previously coupled to Affigel (Biorad) at 5 mg/mL for 2 hours at 4° C. After letting the resins settle, the supernatants are removed. The S12 Affigel containing bound GMP-140 is then loaded into a column and washed overnight at 4° C. with 400 mL of 0.5 M NaCl, 20 mM Tris pH 7.5, 0.01% Lubrol PX.
Bound P-selectin is eluted from the S12 Affigel with 100 mL of 80% ethylene glycol, 1 mM MES pH 6.0, 0.01% Lubrol PX. Peak fractions with absorbance at 280 nm are pooled. Eluates are dialyzed against TBS with 0.05% Lubrol, then applied to a Mono Q column (FPLC from Pharmacia). The concentrated protein is step eluted with 2 M NaCl, 20 mM Tris pH 7.5 (plus 0.05% Lubrol PX for the membrane fraction). Peak fractions are dialyzed into TBS pH 7.5 (plus 0.05% Lubrol PX for the membrane fraction).
P-selectin is plated at 5 micrograms/mL and the control proteins: human serum albumin (Alb), platelet glycoprotein IIb/IIIa (IIb), von Willebrand factor (vWF), fibrinogen (FIB), thrombomodulin (TM), gelatin (GEL) or human serum (HS), are added at 50 micrograms/mL. […]
Broadly, the inhibition is the drop in the measured response relative to a control, in per cent. With `CC(C)C[C@H](NC(=O)[C@@H](NC(=O)[C@@H](N)CCCCN)C(C)C)C(=O)N1CCC[C@H]1C(=O)N[C@@H](Cc1ccc(O)cc1)C(=O)NCC(=O)N[C@@H](CO)C(=O)N[C@@H](CO)C(=O)N[C@@H](Cc1ccc(O)cc1)C(=O)N[C@@H](Cc1ccc(O)cc1)C(N)=O` [SEQ ID NO: 19, Lys--Val--Leu--Pro--Tyr--Gly--Ser--Ser--Tyr--Tyr-NH2] (H-KVLPYGSSYY-NH2), the inhibition at 300 µM was 34%.
Under `CC[C@H](C)[C@H](NC(=O)[C@H](CO)NC(=O)[C@H](CC(N)=O)NC(=O)[C@H](CC(C)C)NC(=O)[C@H](Cc1ccc(O)cc1)NC(=O)[C@@H](N)CCC(=O)O)C(=O)N[C@@H](CC(C)C)C(=O)N[C@@H](CO)C(=O)N[C@@H](Cc1ccc(O)cc1)C(=O)N[C@@H](CO)C(=O)N1CCC[C@H]1C(=O)N[C@@H](CO)C(=O)N[C@@H](Cc1ccc(O)cc1)C(=O)N[C@@H](Cc1ccc(O)cc1)C(=O)N[C@@H](Cc1c[nH]c2ccccc12)C(N)=O` [SEQ ID NO: 23, Glu--Tyr--Leu--Asn--Ser--Ile--Leu--Ser--Tyr--Ser--Pro--Ser--Tyr--Tyr--Trp-NH2] (H-EYLNSILSYSPSYYW-NH2) stands 54%.
Under `CC(C)C[C@H](NC(=O)[C@@H](NC(=O)[C@H](CCCCN)NC(=O)[C@H](CC(N)=O)NC(=O)[C@@H](N)CC(C)C)C(C)C)C(=O)N1CCC[C@H]1C(=O)N[C@@H](Cc1ccc(O)cc1)C(=O)N[C@@H](Cc1ccc(O)cc1)C(=O)N[C@@H](CO)C(=O)N[C@@H](CO)C(=O)N[C@@H](Cc1ccc(O)cc1)C(=O)N[C@@H](Cc1ccc(O)cc1)C(=O)N[C@H](C(N)=O)C(C)C` [SEQ ID NO: 3, Leu--Asn--Lys--Val--Leu--Pro--Tyr--Tyr--Ser--Ser--Tyr--Tyr--Val-NH2] (H-LNKVLPYYSSYYV-NH2) stands 100%; under `CC(C)C[C@H](NC(=O)[C@H](Cc1ccc(O)cc1)NC(=O)[C@@H](N)CC(=O)O)C(=O)N[C@@H](CC(N)=O)C(=O)N[C@@H](CCCCN)C(=O)N[C@H](C(=O)N[C@@H](CC(C)C)C(=O)N1CCC[C@H]1C(=O)N[C@@H](Cc1ccc(O)cc1)C(=O)N[C@@H](Cc1ccc(O)cc1)C(=O)N[C@@H](CO)C(=O)N[C@@H](CO)C(=O)N[C@@H](Cc1ccc(O)cc1)C(=O)N[C@@H](Cc1ccc(O)cc1)C(N)=O)C(C)C` [SEQ ID NO: 6, Asp--Tyr--Leu--Asn--Lys--Val--Leu--Pro--Tyr--Tyr--Ser--Ser--Tyr--Tyr-NH2] (H-DYLNKVLPYYSSYY-NH2), 61%.
Under `CC(C)C[C@H](NC(=O)[C@@H](N)C(C)C)C(=O)N1CCC[C@H]1C(=O)N[C@@H](Cc1ccc(O)cc1)C(=O)N[C@@H](Cc1ccc(O)cc1)C(=O)N[C@@H](CO)C(=O)N[C@@H](CO)C(=O)N[C@@H](Cc1ccc(O)cc1)C(=O)N[C@@H](Cc1ccc(O)cc1)C(=O)N[C@H](C(N)=O)C(C)C` [SEQ ID NO: 10, Val--Leu--Pro--Tyr--Tyr--Ser--Ser--Tyr--Tyr--Val-NH2] (H-VLPYYSSYYV-NH2) stands 66%; under `CC(C)C[C@H](NC(=O)[C@@H](NC(=O)[C@@H](N)CCCCN)C(C)C)C(=O)N1CCC[C@H]1C(=O)N[C@@H](Cc1ccc(O)cc1)C(=O)N[C@@H](Cc1ccc(O)cc1)C(=O)N[C@@H](CO)C(=O)N[C@@H](C)C(=O)N[C@@H](Cc1ccc(O)cc1)C(=O)N[C@@H](Cc1ccc(O)cc1)C(N)=O` [SEQ ID NO: 14, Lys--Val--Leu--Pro--Tyr--Tyr--Ser--Ala--Tyr--Tyr-NH2] (H-KVLPYYSAYY-NH2), 18%; under `CC(C)[C@H](NC(=O)[C@@H](N)CCCCN)C(=O)N[C@@H](CCC(N)=O)C(=O)N1CCC[C@H]1C(=O)N[C@@H](Cc1ccc(O)cc1)C(=O)N[C@@H](Cc1ccc(O)cc1)C(=O)N[C@@H](CO)C(=O)N[C@@H](CO)C(=O)N[C@@H](Cc1ccc(O)cc1)C(=O)N[C@@H](Cc1ccc(O)cc1)C(N)=O` [SEQ ID NO: 22, Lys--Val--Gln--Pro--Tyr--Tyr--Ser--Ser--Tyr--Tyr-NH2] (H-KVQPYYSSYY-NH2), 29%.
For the molecule `CC(C)C[C@H](NC(=O)[C@@H](NC(=O)[C@@H](N)CCCCN)C(C)C)C(=O)N1CCC[C@H]1C(=O)N[C@@H](Cc1ccc(O)cc1)C(=O)N[C@@H](Cc1ccc(O)cc1)C(=O)N[C@@H](CO)C(=O)N[C@@H](CO)C(=O)N[C@@H](Cc1ccc(O)cc1)C(=O)N[C@@H](Cc1ccc(O)cc1)C(=O)N[C@H](C(N)=O)C(C)C` [SEQ ID NO: 5, Lys--Val--Leu--Pro--Tyr--Tyr--Ser--Ser--Tyr--Tyr--Val-NH2] (H-KVLPYYSSYYV-NH2), the inhibition at 300 µM stood at 102%.
